# Values of other authors in paper PMC11891579, “Fluorescent PyrAte-(S)-citalopram conjugates enable imaging of the serotonin transporter in living tissue” (Chemical Science, 2025).
# System: organic cation transporter 3 (OCT3)
# Design: method as in PMID 34884800
# Details: cited from earlier work
smiles,measurement,value
CN(C)CCC[C@@]1(c2ccc(F)cc2)OCc2cc(C#N)ccc21 [(S)-citalopram],affinity towards OCT3,does not display affinity towards OCT3
